Experimental findings from US11952384B2, “Anti-tumor compound and preparation method and use thereof” (DUALITY BIOLOGICS (SUZHOU) CO., LTD., priority 2020, dated 2024) are described below.

One data set concerns JIMT-1 cells. The experiment in a line: Inhibition of in vitro proliferation of tumor cells by compounds (CTG, 6 days). The format is cell-based. The protocol:
(§1) To test the inhibitory activity of the pharmaceutical compounds on the in vitro proliferation of NCI-N87, JIMT-1 and MBA-MB-231 tumor cells. The cells were treated with the compounds at different concentrations in vitro, and after 6 days of culture, the proliferation of cells was detected using the CTG (CellTiter-Glo® Luminescent Cell Viability Assay, Promega, Cat. No. G7558) reagent, and the in vitro activity of the compounds was evaluated according to the IC50 value.
(§2) In the following, the test for the inhibition of the in vitro proliferation of NCI-N87 cells was taken as an example to illustrate the method of the present application for testing the inhibitory activity of the compounds of the present application on the in vitro proliferation of tumor cells. The method was also applicable to, but not limited to, the test for the inhibitory activity on the in vitro proliferation of other tumor cells. • 1. Culturing of cells: NCI-N87 cells were cultured in RPMI-1640 medium containing 10% FBS. • 2. Preparation of cells: NCI-N87 cells in logarithmic phase were taken, washed with PBS once, and digested with 2-3 mL of trypsin for 2-3 min. After the cells were digested completely, 10-15 mL of cell culture was added to elute the digested cells. The eluate was centrifuged at 1000 rpm for 5 min, and the supernatant was discarded. The resulting cells were resuspended in 10-20 mL of cell culture to obtain a single cell suspension. • 3. Cell plating: the NCI-N87 single cell suspension was mixed well and adjusted to a viable cell density of 6×10^4 cells/mL with cell culture. The cell suspension with the adjusted density was mixed well and added to a 96-well cell culture plate at 50 μL/well. The culture plate was incubated in an incubator for 18 h (37° C., 5% CO2). • 4. Preparation of compounds: the compounds were dissolved in DMSO to obtain stock solutions at an initial concentration of 10 mM. There were 8 concentrations in total for the small molecule compounds: 300 nM, 100 nM, 30 nM, 10 nM, 3 nM, 1 nM, 0.3 nM, and 0.1 nM. • 5. Sample adding: the prepared samples to be detected at different concentrations were added to the culture plate, and two duplicate wells were set for each sample. The culture plate was incubated in an incubator for 6 days (37° C., 5% CO2). • 6. Color developing: the 96-well cell culture plate was taken out, added with the CTG reagent at 50 μL/well, and incubated at room temperature for 10 min. • 7. Plate reading: the 96-well cell culture plate was taken out, placed in a microplate reader, and measured for the chemiluminescence using the microplate reader. Data Analysis
(§3) Data were processed and analyzed using Microsoft Excel and Graphpad Prism 5.
(§4) To test the inhibitory activity of the pharmaceutical compounds on the in vitro proliferation of NCI-N87, JIMT-1 and MBA-MB-231 tumor cells. The cells were treated with compounds at different concentrations in vitro, and after 6 days of culture, the proliferation of cells was detected using CTG (CellTiter-Glo® Luminescent Cell Viability Assay, Promega, Cat. No. G7558) reagents, and the in vitro activity of the compounds was evaluated according to the IC50 value. • 1. Culturing of cells: NCI-N87/JIMT-1/MBA-MB-231 cells were cultured in RPMI-1640 medium containing 10% FBS. • 2. Preparation of cells: NCI-N87/JIMT-1/MBA-MB-231 cells in logarithmic phase were taken, washed with PBS once, and digested with 2-3 mL of trypsin for 2-3 min. After the cells were digested completely, 10-15 mL of cell culture was added to elute the digested cells. The eluate was centrifuged at 1000 rpm for 5 min, and the supernatant was discarded. The resulting cells were resuspended in 10-20 mL of cell culture to obtain a single cell suspension. • 3. Cell plating: the NCI-N87/JIMT-1/MBA-MB-231 single cell suspension was mixed well and adjusted to a viable cell density of 6×10^4 cells/mL with cell culture. […]

A further data set concerns NCI-N87 cells. The data set is described as above. The class given is cell-based. To be noted: Homo sapiens, NCI-N87, 144 h, read-out: NCI-N87 IC50 (nM). The protocol:
as §1, §2, §3, §4

Data set [1] has as its target T1, BCRP (Homo sapiens, UniProt Q9UNQ0).
T1 sequence (Q9UNQ0 1-655): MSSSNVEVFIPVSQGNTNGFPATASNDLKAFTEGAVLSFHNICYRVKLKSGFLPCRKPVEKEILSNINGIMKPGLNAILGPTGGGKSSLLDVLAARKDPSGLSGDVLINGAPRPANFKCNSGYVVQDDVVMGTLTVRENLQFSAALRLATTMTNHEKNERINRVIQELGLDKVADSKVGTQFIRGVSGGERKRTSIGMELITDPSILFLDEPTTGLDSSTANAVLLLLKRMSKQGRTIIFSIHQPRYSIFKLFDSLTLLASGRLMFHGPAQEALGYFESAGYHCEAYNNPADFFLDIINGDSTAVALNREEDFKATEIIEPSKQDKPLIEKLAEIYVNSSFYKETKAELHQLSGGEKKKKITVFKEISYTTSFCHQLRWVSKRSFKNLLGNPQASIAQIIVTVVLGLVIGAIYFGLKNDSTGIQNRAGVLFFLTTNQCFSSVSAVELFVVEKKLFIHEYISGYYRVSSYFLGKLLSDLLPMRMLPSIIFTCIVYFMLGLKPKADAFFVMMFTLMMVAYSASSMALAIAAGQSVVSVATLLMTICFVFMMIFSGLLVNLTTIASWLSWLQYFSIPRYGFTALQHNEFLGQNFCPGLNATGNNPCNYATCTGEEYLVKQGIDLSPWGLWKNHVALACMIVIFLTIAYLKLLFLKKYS
The data set is described as follows: in vitro. To be noted: for efflux ratio at 2 h: Caco-2; for Papp A→B at 2 h: Caco-2, Papp (A-B) (10^−6, cm/s); for Papp B→A at 2 h: Caco-2, Papp (B-A) (10^−6, cm/s).

Data set [2] addresses T1, BCRP.
For data set [3], the target named is T1, BCRP. The data set is described as follows: Study on transporter substrates in Caco-2 cell model. The conditions noted are these: human, Caco-2.
Where [4] appears, read: Homo sapiens, JIMT-1, 144 h, read-out: JIMT-1 IC50 (nM).

Where two headings read alike, the source gives them in different places.

The term IC50 denotes the concentration that gives 50% inhibition. Consider `CC[C@@]1(O)C(=O)OCc2c1cc1n(c2=O)Cc2c-1nc1cc(F)c(C)c3c1c2[C@@H](NC(=O)C1CCCC(O)C1)CC3` (stereo partly drawn) [P-II-22, N-((1S,9S)-9-ethyl-5-fluoro-9-hydroxy-4-methyl-10,13-dioxo-2,3,9,10,13,15-hexahydro-1H,12H-benzo[de]pyrano[3′,4′:6,7]indolizino[1,2-b]quinolin-1-yl)-3-hydroxycyclohexane-1-carboxamide], for which, in the data set with JIMT-1 cells (setting [4]), the half-inhibitory concentration (IC50) stood at 3.2 nM.

Take `CC[C@@]1(O)C(=O)OCc2c1cc1n(c2=O)Cc2c-1nc1cc(F)c(C)c3c1c2[C@@H](NC(=O)CCS)CC3` [P-III-2, N-((1S,9S)-9-ethyl-5-fluoro-9-hydroxy-4-methyl-10,13-dioxo-2,3,9,10,13,15-hexahydro-1H,12H-benzo[de]pyrano[3′,4′:6,7]indolizino[1,2-b]quinolin-1-yl)-3-mercaptopropanamide]: the 50% inhibitory concentration (IC50) with JIMT-1 cells (setting [4]) and with NCI-N87 cells was 108 nM throughout.

`CC[C@@]1(O)C(=O)OCc2c1cc1n(c2=O)Cc2c-1nc1cc(F)c(C)c3c1c2[C@@H](NC(=O)CC(=O)CO)CC3` [P-III-22, N-((1S,9S)-9-ethyl-5-fluoro-9-hydroxy-4-methyl-10,13-dioxo-2,3,9,10,13,15-hexahydro-1H,12H-benzo[de]pyrano[3′,4′:6,7]indolizino[1,2-b]quinolin-1-yl)-4-hydroxy-3-oxobutanamide]: the IC50 in the data set with JIMT-1 cells (setting [4]) is 12.5 nM.

For the compound `CCCC(O)CC(=O)N[C@H]1CCc2c(C)c(F)cc3nc4c(c1c23)Cn1c-4cc2c(c1=O)COC(=O)[C@]2(O)CC` (stereo partly drawn) [P-III-27, N-((1S,9S)-9-ethyl-5-fluoro-9-hydroxy-4-methyl-10,13-dioxo-2,3,9,10,13,15-hexahydro-1H,12H-benzo[de]pyrano[3′,4′:6,7]indolizino[1,2-b]quinolin-1-yl)-3-hydroxyhexanamide], in the data set on NCI-N87 cells, the IC50 stood at 3 nM.

In general, efflux ratio refers to the permeability from basolateral to apical divided by that in the opposite direction, in the common usage. By Papp A→B is commonly meant the apparent permeability from the apical to the basolateral side of a cell layer. As usually defined, the Papp B→A is how fast a substance crosses the layer from the basolateral side. For `CC(C)NCC(O)COc1cccc2ccccc12` (centres unmarked) [Propranolol], at BCRP [1], the efflux ratio at 2 h worked out at 1.09, the Papp A→B at 2 h worked out at 17.3 ×10⁻⁶ cm/s and the apparent permeability from basolateral to apical (Papp B→A) at 2 h was 18.9 ×10⁻⁶ cm/s. The compound also gave a recovery at 2 h at BCRP [1] (Caco-2, Recovery rate (%) AP-BL) of 62.2%. In addition, at BCRP [1] (Caco-2, Recovery rate (%) BL-AP), the recovery at 2 h was 82.4%. In addition, at BCRP [2] (Caco-2), the BCRP substrate result is “No”.

Turning to `CC(C)c1nc(N(C)S(C)(=O)=O)nc(-c2ccc(F)cc2)c1/C=C/[C@@H](O)C[C@@H](O)CC(=O)O` [Rosuvastatin, rosuvastatin, reference compound], at BCRP [1], the efflux ratio at 2 h was determined as 81.2, the Papp A→B at 2 h turned out to be 0.12 ×10⁻⁶ cm/s and the Papp B→A at 2 h was found to be 9.52 ×10⁻⁶ cm/s. Also, the recovery at 2 h on BCRP [3] (Caco-2, Recovery rate (%) AP-BL, KO143 −) was found to be 98.5%. Also, the recovery at 2 h at BCRP [3] (Caco-2, Recovery rate (%) BL-AP, KO143 −) stood at 96.8%. For the same compound, the recovery at 2 h on BCRP [3] (Caco-2, with KO143 (concentration not stated), Recovery rate (%) AP-BL, KO143 +) was 95.8%. Besides, the recovery at 2 h on BCRP [3] (Caco-2, with KO143 (concentration not stated), Recovery rate (%) BL-AP, KO143 +) worked out at 97.1%. Further, on BCRP [2] (Caco-2), the BCRP substrate result was “Yes”; the “Papp (A-B) (10^−6, cm/s)” value was 0.45 10^−6, cm/s; the “Papp (B-A) (10^−6, cm/s)” value is on record as 3.15 10^−6, cm/s. Moreover, the Efflux ratio at BCRP [2] (human, Caco-2, 2 h) stood at 6.96.

Regarding `CC[C@@]1(O)C(=O)OCc2c1cc1n(c2=O)Cc2c-1nc1cc(F)c(C)c3c1c2[C@@H](NC(=O)C1(O)CCC1)CC3` [compound 1, N-((1S,9S)-9-ethyl-5-fluoro-9-hydroxy-4-methyl-10,13-dioxo-2,3,9,10,13,15-hexahydro-1H,12H-benzo[de]pyrano[3′,4′:6,7]indolizino[1,2-b]quinolin-1-yl)-1-hydroxycyclobutane-1-carboxamide, reference compound], in the data set with JIMT-1 cells (Homo sapiens, JIMT-1, 144 h, Table 2 (untitled), Test Example 2.2, small molecule fragments, 6 days of culture, CTG, read-out: JIMT-1 IC50), the IC50 stood at 23.1 nM.

Take `CC[C@@]1(O)C(=O)OCc2c1cc1n(c2=O)Cc2c-1nc1cc(F)c(C)c3c1c2[C@@H](NC(=O)CCN)CC3` [compound 2, N-((1S,9S)-9-ethyl-5-fluoro-9-hydroxy-4-methyl-10,13-dioxo-2,3,9,10,13,15-hexahydro-1H,12H-benzo[de]pyrano[3′,4′:6,7]indolino[1,2-b]quinolin-1-yl)-3-aminopropionamide, reference compound]: the IC50 with JIMT-1 cells (Table 3, Test Example 2.3, small molecule fragments, 6 days of culture, CTG, read-out: JIMT-1 IC50) stood at 36.2 nM.

On to `CC[C@@]1(O)C(=O)OCc2c1cc1n(c2=O)Cc2c-1nc1cc(F)c(C)c3c1c2[C@@H](NC(=O)CCO)CC3` [compound 3, N-((1S,9S)-9-ethyl-5-fluoro-9-hydroxy-4-methyl-10,13-dioxo-2,3,9,10,13,15-hexahydro-1H,12H-benzo[de]pyrano[3′,4′:6,7]indolizino[1,2-b]quinolin-1-yl)-3-hydroxypropanamide, reference compound], for which the IC50 in the data set on JIMT-1 cells (Homo sapiens, JIMT-1, 144 h, Table 3, Test Example 2.3, small molecule fragments, 6 days of culture, CTG, read-out: JIMT-1 IC50) was 81.2 nM.

On to `CC[C@@]1(O)C(=O)OCc2c1cc1n(c2=O)Cc2c-1nc1cc(F)c(C)c3c1c2[C@@H](NC(=O)C(C)C(C)O)CC3` (stereo partly drawn) [compound 4, N-((1S,9S)-9-ethyl-5-fluoro-9-hydroxy-4-methyl-10,13-dioxo-2,3,9,10,13,15-hexahydro-1H,12H-benzo[de]pyrano[3′,4′:6,7]indolizino[1,2-b]quinolin-1-yl)-3-hydroxy-2-methylbutanamide, reference compound], for which, in the data set with JIMT-1 cells (setting [4]), the IC50 amounted to 32.3 nM.
